The values that follow are results of earlier work, collected in patent publication US6232438A, “Angiotensin converting enzyme inhibitors” (Nong Shim Co., Ltd., priority 1996, dated 2001).

The target of this series is ACE (Homo sapiens, UniProt P12821). The settings on record: peptide from enzymatic hydrolysate of milk casein.
Sequence of ACE (P12821 30-1306, species assumed): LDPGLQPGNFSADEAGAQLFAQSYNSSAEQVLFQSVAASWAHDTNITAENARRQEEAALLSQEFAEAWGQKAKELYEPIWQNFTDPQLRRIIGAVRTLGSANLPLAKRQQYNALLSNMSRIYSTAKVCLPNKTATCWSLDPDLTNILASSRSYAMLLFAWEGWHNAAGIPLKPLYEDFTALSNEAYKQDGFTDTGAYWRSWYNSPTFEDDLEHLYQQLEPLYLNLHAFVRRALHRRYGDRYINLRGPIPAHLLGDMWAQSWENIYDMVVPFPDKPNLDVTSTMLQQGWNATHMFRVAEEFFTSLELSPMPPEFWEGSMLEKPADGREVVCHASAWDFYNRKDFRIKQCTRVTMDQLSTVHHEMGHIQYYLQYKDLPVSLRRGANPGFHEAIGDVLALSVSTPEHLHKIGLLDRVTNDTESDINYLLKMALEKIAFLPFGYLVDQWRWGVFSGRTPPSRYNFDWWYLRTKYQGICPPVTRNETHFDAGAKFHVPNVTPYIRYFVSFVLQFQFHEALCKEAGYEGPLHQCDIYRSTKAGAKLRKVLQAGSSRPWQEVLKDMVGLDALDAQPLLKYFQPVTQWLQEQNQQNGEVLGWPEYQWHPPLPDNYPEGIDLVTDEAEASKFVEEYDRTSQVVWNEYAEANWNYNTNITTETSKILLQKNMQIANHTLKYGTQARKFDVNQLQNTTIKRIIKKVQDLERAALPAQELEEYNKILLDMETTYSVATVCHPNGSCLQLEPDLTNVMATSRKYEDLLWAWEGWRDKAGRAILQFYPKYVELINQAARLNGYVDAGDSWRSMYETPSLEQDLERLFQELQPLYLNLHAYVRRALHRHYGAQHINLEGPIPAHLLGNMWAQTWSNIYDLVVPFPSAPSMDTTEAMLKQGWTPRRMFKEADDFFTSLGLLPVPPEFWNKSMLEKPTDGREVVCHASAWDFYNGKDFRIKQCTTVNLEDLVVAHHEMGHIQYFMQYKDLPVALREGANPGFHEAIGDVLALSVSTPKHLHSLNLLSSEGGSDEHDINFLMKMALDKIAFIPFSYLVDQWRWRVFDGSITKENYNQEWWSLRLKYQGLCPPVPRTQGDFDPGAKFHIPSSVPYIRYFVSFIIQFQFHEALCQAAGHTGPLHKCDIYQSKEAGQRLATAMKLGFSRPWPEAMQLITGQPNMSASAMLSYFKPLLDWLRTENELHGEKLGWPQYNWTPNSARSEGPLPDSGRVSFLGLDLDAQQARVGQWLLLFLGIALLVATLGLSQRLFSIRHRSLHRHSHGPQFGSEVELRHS

With “phenylalanine-phenylalanine-valine-alanine-proline”, the IC50 was 6 µM.

By IC50 is commonly meant the concentration at which inhibition is half-maximal.
